Source: ChEMBL document CHEMBL1201862, “PubChem BioAssay data set” (2004)
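The compound was tested at five concentrations on cells cultured in 96-well plates, with a 48-hour exposure period. Here, GI50 denotes the concentration required for 50% inhibition of growth.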 The source made the active and inactive calls. Cut-off read from the data, not from the text of the source: active = GI50 up to about 1.1 µM and inactive = higher.

Columns and labels:
Assay in all cases: NCI tumour cell line growth inhibition, 48 h
A549 = test system: A549
ACHN = test system: ACHN
CAKI-1 = test system: CAKI-1
CCRF-CEM = test system: CCRF-CEM
COLO 205 = test system: COLO 205
DLD-1 = test system: DLD-1
DMS-114 = test system: DMS-114
DMS-273 = test system: DMS-273
EKVX = test system: EKVX
HCC 2998 = test system: HCC 2998
HCT-116 = test system: HCT-116
HCT-15 = test system: HCT-15
HL-60 = test system: HL-60
HOP-62 = test system: HOP-62
HOP-92 = test system: HOP-92
HT-29 = test system: HT-29
IGROV-1 = test system: IGROV-1
K562 = test system: K562
KM-20L2 = test system: KM-20L2
KM12 = test system: KM12
LOX IMVI = test system: LOX IMVI
LXFL 529 = test system: LXFL 529
M14 = test system: M14
M19-MEL = test system: M19-MEL
MOLT-4 = test system: MOLT-4
Malme-3M = test system: Malme-3M
NCI-H226 = test system: NCI-H226
NCI-H460 = test system: NCI-H460
NCI-H522 = test system: NCI-H522
OVCAR-3 = test system: OVCAR-3
OVCAR-4 = test system: OVCAR-4
OVCAR-5 = test system: OVCAR-5
OVCAR-8 = test system: OVCAR-8
RPMI-8226 = test system: RPMI-8226
RXF 393 = test system: RXF 393
SF-268 = test system: SF-268
SF-295 = test system: SF-295
SF-539 = test system: SF-539
SK-MEL-28 = test system: SK-MEL-28
SK-MEL-2 = test system: SK-MEL-2
SK-OV-3 = test system: SK-OV-3
SN12C = test system: SN12C
SNB-19 = test system: SNB-19
SR = test system: SR
SW-620 = test system: SW-620
TK-10 = test system: TK-10
UACC-62 = test system: UACC-62
UO-31 = test system: UO-31
XF498 = test system: XF498
786-0 = test system: 786-0
A498 = test system: A498
HOP-18 = test system: HOP-18
NCI-H23 = test system: NCI-H23
SK-MEL-5 = test system: SK-MEL-5
U-251 = test system: U-251

Structure (SMILES): CC(/C=C/c1ncccc1OCCCCCC(=O)O)=N\NC1=NCCN1
- GI50 (A549): > 100 µM (inactive)
- GI50 (ACHN): > 100 µM (inactive)
- GI50 (CAKI-1): > 100 µM (inactive)
- GI50 (CCRF-CEM): > 100 µM (inactive)
- GI50 (COLO 205): > 100 µM (inactive)
- GI50 (DLD-1): > 100 µM (inactive)
- GI50 (DMS-114): > 100 µM (inactive)
- GI50 (DMS-273): > 100 µM (inactive)
- GI50 (EKVX): > 100 µM (inactive)
- GI50 (HCC 2998): > 100 µM (inactive)
- GI50 (HCT-116): > 100 µM (inactive)
- GI50 (HCT-15): > 100 µM
- GI50 (HL-60): > 100 µM (inactive)
- GI50 (HOP-62): > 100 µM (inactive)
- GI50 (HOP-92): > 100 µM (inactive)
- GI50 (HT-29): > 100 µM (inactive)
- GI50 (IGROV-1): > 100 µM (inactive)
- GI50 (K562): > 100 µM (inactive)
- GI50 (KM-20L2): > 100 µM (inactive)
- GI50 (KM12): > 100 µM (inactive)
- GI50 (LOX IMVI): > 100 µM (inactive)
- GI50 (LXFL 529): > 100 µM (inactive)
- GI50 (M14): > 100 µM (inactive)
- GI50 (M19-MEL): > 100 µM (inactive)
- GI50 (MOLT-4): > 100 µM (inactive)
- GI50 (Malme-3M): > 100 µM (inactive)
- GI50 (NCI-H226): > 100 µM (inactive)
- GI50 (NCI-H460): > 100 µM (inactive)
- GI50 (NCI-H522): > 100 µM (inactive)
- GI50 (OVCAR-3): > 100 µM (inactive)
- GI50 (OVCAR-4): > 100 µM (inactive)
- GI50 (OVCAR-5): > 100 µM (inactive)
- GI50 (OVCAR-8): > 100 µM (inactive)
- GI50 (RPMI-8226): > 100 µM (inactive)
- GI50 (RXF 393): 68.1 µM (inactive)
- GI50 (SF-268): > 100 µM (inactive)
- GI50 (SF-295): > 100 µM (inactive)
- GI50 (SF-539): > 100 µM (inactive)
- GI50 (SK-MEL-28): > 100 µM (inactive)
- GI50 (SK-MEL-2): > 100 µM (inactive)
- GI50 (SK-OV-3): > 100 µM (inactive)
- GI50 (SN12C): > 100 µM (inactive)
- GI50 (SNB-19): > 100 µM (inactive)
- GI50 (SR): > 100 µM (inactive)
- GI50 (SW-620): > 100 µM (inactive)
- GI50 (TK-10): 65.3 µM (inactive)
- GI50 (UACC-62): > 100 µM (inactive)
- GI50 (UO-31): > 100 µM (inactive)
- GI50 (XF498): > 100 µM (inactive)

Structure (SMILES): Cn1c2c(c3ccccc31)CCN(CCN1CCN(c3cccc(Cl)c3)CC1)C2=O
- GI50 (786-0): > 100 µM (inactive)
- GI50 (A498): > 100 µM (inactive)
- GI50 (A549): > 100 µM (inactive)
- GI50 (ACHN): > 100 µM (inactive)
- GI50 (CCRF-CEM): > 100 µM (inactive)
- GI50 (COLO 205): 40.7 µM (inactive)
- GI50 (DLD-1): 20.7 µM (inactive)
- GI50 (DMS-114): 37.4 µM (inactive)
- GI50 (DMS-273): 49.5 µM (inactive)
- GI50 (EKVX): > 100 µM (inactive)
- GI50 (HCT-116): 40.5 µM (inactive)
- GI50 (HCT-15): 25.8 µM
- GI50 (HL-60): 15.9 µM (inactive)
- GI50 (HOP-18): > 100 µM (inactive)
- GI50 (HOP-62): > 100 µM (inactive)
- GI50 (HOP-92): 19.9 µM (inactive)
- GI50 (HT-29): 18.2 µM (inactive)
- GI50 (IGROV-1): > 100 µM (inactive)
- GI50 (K562): 35.3 µM (inactive)
- GI50 (KM-20L2): 32.4 µM (inactive)
- GI50 (LOX IMVI): 57.9 µM (inactive)
- GI50 (LXFL 529): 49 µM (inactive)
- GI50 (M14): 46 µM (inactive)
- GI50 (M19-MEL): > 100 µM (inactive)
- GI50 (MOLT-4): 43.8 µM (inactive)
- GI50 (NCI-H23): 35.8 µM (inactive)
- GI50 (NCI-H522): 47.5 µM (inactive)
- GI50 (OVCAR-8): > 100 µM (inactive)
- GI50 (RPMI-8226): 21.6 µM (inactive)
- GI50 (RXF 393): 67.1 µM (inactive)
- GI50 (SF-268): > 100 µM (inactive)
- GI50 (SF-539): > 100 µM (inactive)
- GI50 (SK-MEL-28): > 100 µM (inactive)
- GI50 (SK-MEL-5): 23.6 µM (inactive)
- GI50 (SK-OV-3): > 100 µM (inactive)
- GI50 (SN12C): 32.1 µM (inactive)
- GI50 (SW-620): 63.4 µM (inactive)
- GI50 (TK-10): > 100 µM (inactive)
- GI50 (U-251): > 100 µM (inactive)
- GI50 (UACC-62): 72.9 µM (inactive)
- GI50 (UO-31): 30.3 µM (inactive)
- GI50 (XF498): 3.38 µM (inactive)
